Laboratory results from US8163793B2, “Proline derivatives” (Hoffman-La Roche Inc., priority 2009, dated 2012).

Experiments:
Cathepsin S = Cathepsin S (UniProt P25774); experiment: Cathepsin enzyme inhibition assay (fluorogenic peptide substrate Z-Val-Val-Arg-AMC), Cathepsin S; assay type: biochemical, human and mouse; details: enzyme 1 nM, substrate 20 μM, pH 6.5; read-out: CatS IC50
In short: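 Compounds were combined with 1 nM human or mouse enzyme, and substrate then started the reaction. The buffer was potassium phosphate (100 mM, pH 6.5) containing EDTA-Na 5 mM, Triton X-100 0.001% and […] 5 mM.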

Cat L = Cat L (UniProt P07711); experiment: Cathepsin enzyme inhibition assay (fluorogenic peptide substrate Z-Val-Val-Arg-AMC), Cathepsin L; assay type: biochemical, human and mouse; details: enzyme 1 nM, substrate 20 μM, pH 6.5; read-out: CatL IC50
In short: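 Fluorogenic cleavage of Z-Val-Val-Arg-AMC (20 μM) by 1 nM Cat L was monitored at ex 360/em 465 nm for 20 min, the linear phase. The buffer was 100 mM potassium phosphate pH 6.5 with 5 mM EDTA and DTT. IC50 values were derived by standard methods, in μM.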

IC50 (Cathepsin S)	IC50 (Cat L)	SMILES
85.5 nM	≥ 25000 nM	CC(C)(C)c1ccc([C@@H]2N[C@](CCS(=O)(=O)c3ccccc3)(C(=O)NC3(C#N)CC3)C[C@H]2S(=O)(=O)c2ccccc2)cc1 [Example 441, (2S,4R,5S)-5-(4-tert-butylphenyl)-N-(1-cyanocyclopropyl)-4-(phenylsulfonyl)-2-(2-(phenylsulfonyl)ethyl)pyrrolidine-2-carboxamide]
23 nM	14600 nM	N#CC1(NC(=O)[C@@H]2C[C@@H](S(=O)(=O)c3ccccc3Cl)CN2Cc2ccncc2)CC1 [Example 86, (2S,4R)-4-(2-Chloro-benzenesulfonyl)-1-pyridin-4-ylmethyl-pyrrolidine-2-carboxylic acid (1-cyano-cyclopropyl)-amide]
0.4 nM	17800 nM	CC(C)CC(=O)N1C[C@H](S(=O)(=O)c2ccccc2Cl)C[C@H]1C(=O)NC1(C#N)CC1 [Example 220, (2S,4R)-4-(2-Chloro-benzenesulfonyl)-1-(3-methyl-butyryl)-pyrrolidine-2-carboxylic acid (1-cyano-cyclopropyl)-amide]
14 nM	≥ 25000 nM	N#CCNC(=O)[C@@H]1C[C@@H](S(=O)(=O)c2ccccc2)CN1C(=O)c1ccccc1 [Example 52, (2S,4R)-4-Benzenesulfonyl-1-benzoyl-pyrrolidine-2-carboxylic acid cyanomethyl-amide]
99.3 nM	≥ 25000 nM	N#CC1(NC(=O)C2CC(S(=O)(=O)c3ccccc3C(F)(F)F)CN2c2ccccc2-c2ccccc2)CC1 (stereo not drawn) [Example 343, 1-Biphenyl-2-yl-4-(2-trifluoromethyl-benzenesulfonyl)-pyrrolidine-2-carboxylic acid (1-cyano-cyclopropyl)-amide]
675 nM	≥ 25000 nM	C=CCOc1ccccc1S(=O)(=O)[C@@H]1C[C@@H](C(=O)NC2(C#N)CC2)N(C(=O)OC(C)(C)C)C1 [Example 450, (2S,4R)-4-(2-Allyloxy-benzenesulfonyl)-2-(1-cyano-cyclopropylcarbamoyl)-pyrrolidine-1-carboxylic acid tert-butyl ester]
0.245 nM	185 nM	N#CC1(NC(=O)[C@@H]2C[C@@H](S(=O)(=O)c3ccc(OCC(F)(F)F)cc3Cl)CN2C(=O)C2CC2c2ccccc2)CC1 (stereo partly drawn) [Example 246]
4 nM	≥ 25000 nM	Cc1cc(N2C[C@H](S(=O)(=O)c3ccccc3C(F)(F)F)C[C@H]2C(=O)NC2(C#N)CC2)n(C2CCN(C(=O)OCc3ccccc3)CC2)n1 [Example 406, 4-{5-[(2S,4R)-2-(1-Cyano-cyclopropylcarbamoyl)-4-(2-trifluoromethyl-benzenesulfonyl)-pyrrolidin-1-yl]-3-methyl-pyrazol-1-yl}-piperidine-1-carboxylic acid Benzyl Ester]
0.437 nM	11300 nM	Cc1cc(N2C[C@H](S(=O)(=O)c3ccccc3C(F)(F)F)C[C@H]2C(=O)NC2(C#N)CC2)n(C2CCCCC2)n1 [Example 318, (2S,4R)-1-(2-Cyclohexyl-5-methyl-2H-pyrazol-3-yl)-4-(2-trifluoromethyl-benzenesulfonyl)-pyrrolidine-2-carboxylic acid (1-cyano-cyclopropyl)-amide]
35.5 nM	≥ 25000 nM	N#CCNC(=O)C12CC(F)(F)CN1CCC2S(=O)(=O)c1ccccc1 (stereo not drawn) [Example 116, 1-Benzenesulfonyl-6,6-difluoro-tetrahydro-pyrrolizine-7a-carboxylic acid cyanomethyl-amide, diasteromer Δ1]
0.6 nM	≥ 25000 nM	N#CC1(NC(=O)[C@@H]2C[C@@H](S(=O)(=O)c3ccccc3C(F)(F)F)CN2c2ccccc2[N+](=O)[O-])CC1 [Example 166, (2S,4R)-1-(2-Nitro-phenyl)-4-(2-trifluoromethyl-benzenesulfonyl)-pyrrolidine-2-carboxylic Acid (1-cyano-cyclopropyl)-amide]
0.725 nM	3990 nM	Cc1cc(N2C[C@H](S(=O)(=O)c3ccc(N4CC(F)(F)C4)cc3Cl)C[C@H]2C(=O)NC2(C#N)CC2)n(C2CCC2)n1 [Example 456, (2S,4R)-4-(2-chloro-4-(3,3-difluoroazetidin-1-yl)phenylsulfonyl)-N-(1-cyanocyclopropyl)-1-(1-cyclobutyl-3-methyl-1H-pyrazol-5-yl)pyrrolidine-2-carboxamide]

More lines, now with the values behind:

SMILES	IC50 (Cathepsin S)	IC50 (Cat L)
N#CC1(NC(=O)[C@@H]2C[C@@H](S(=O)(=O)c3ccc(-n4cccn4)cc3Cl)CN2C(=O)C2(C(F)(F)F)CC2)CC1 [Example 147, (2S,4R)-4-(2-Chloro-4-pyrazol-1-yl-benzenesulfonyl)-1-(1-trifluoromethyl-cyclopropanecarbonyl)-pyrrolidine-2-carboxylic acid (1-cyano-cyclopropyl)-amide]	0.4 nM	13600 nM
CC1(C(=O)N2C[C@H](S(=O)(=O)c3ccc(-c4ccc(F)cc4F)cc3C(F)(F)F)C[C@H]2C(=O)NC2(C#N)CC2)CC1 [Example 259, (2S,4R)-4-(2′,4′-Difluoro-3-trifluoromethyl-biphenyl-4-sulfonyl)-1-(1-methyl-cyclopropanecarbonyl)-pyrrolidine-2-carboxylic acid (1-cyano-cyclopropyl)-amide]	0.19 nM	79500 nM
N#CC1(NC(=O)[C@@H]2C[C@@H](S(=O)(=O)c3ccccc3Cl)CN2C(=O)C(F)(F)c2ccc(Cl)c(Cl)c2)CC1 [Example 437, (2S,4R)-4-(2-Chloro-benzenesulfonyl)-1-[2-(3,4-dichloro-phenyl)-2,2-difluoro-acetyl]-pyrrolidine-2-carboxylic acid (1-cyano-cyclopropyl)-amide]	1.45 nM	335 nM
CN1CCN(c2ccc(S(=O)(=O)[C@@H]3C[C@@H](C(=O)NC4(C#N)CC4)N(C(=O)C4(C(F)(F)F)CC4)C3)c(C(F)(F)F)c2)CC1 [Example 260, (2S,4R)-4-[4-(4-Methyl-piperazin-1-yl)-2-trifluoromethyl-benzenesulfonyl]-1-(1-trifluoromethyl-cyclopropanecarbonyl)-pyrrolidine-2-carboxylic acid (1-cyano-cyclopropyl)-amide]	0.245 nM	16500 nM
Cc1cc(N2C[C@H](S(=O)(=O)c3ccc(OCC(F)(F)F)cc3C(F)(F)F)C[C@H]2C(=O)NC2(C#N)CC2)n(-c2ccc(C(F)(F)F)cc2)n1 [Example 306, (2S,4R)-1-[5-Methyl-2-(4-trifluoromethyl-phenyl)-2H-pyrazol-3-yl]-4-[4-(2,2,2-trifluoro-ethoxy)-2-trifluoromethyl-benzenesulfonyl]-pyrrolidine-2-carboxylic acid (1-cyano-cyclopropyl)-amide]	0.555 nM	64500 nM
CC1(C(=O)N2C[C@H](S(=O)(=O)c3ccc(Br)cc3C(F)(F)F)C[C@H]2C(=O)NC2(C#N)CC2)CC1 [Example 270, (2S,4R)-4-(4-Bromo-2-trifluoromethyl-benzenesulfonyl)-1-(1-methyl-cyclopropanecarbonyl)-pyrrolidine-2-carboxylic acid (1-cyano-cyclopropyl)-amide]	0.395 nM	≥ 25000 nM
Cc1cc(N2C[C@H](S(=O)(=O)c3ccccc3C(F)(F)F)C[C@H]2C(=O)NC2(C#N)CC2)n(-c2nccs2)n1 [Example 234, (2S,4R)-1-(5-Methyl-2-thiazol-2-yl-2H-pyrazol-3-yl)-4-(2-trifluoromethyl-benzenesulfonyl)-pyrrolidine-2-carboxylic acid (1-cyano-cyclopropyl)-amide]	1.57 nM	≥ 25000 nM
CCN1CCN(c2ccc(S(=O)(=O)[C@@H]3C[C@@H](C(=O)NC4(C#N)CC4)N(c4ncccc4C(F)(F)F)C3)c(Cl)c2)CC1 [Example 190, (2S,4R)-4-[2-Chloro-4-(4-ethyl-piperazin-1-yl)-benzenesulfonyl]-1-(3-trifluoromethyl-pyridin-2-yl)-pyrrolidine-2-carboxylic acid (1-cyano-cyclopropyl)-amide]	1.5 nM	5160 nM
C[C@H](Oc1ccc(S(=O)(=O)[C@@H]2C[C@@H](C(=O)NC3(C#N)CC3)N(C(=O)C3(C)CC3)C2)c(Cl)c1)C(F)(F)F [Example 199, (2S,4R)-4-[2-Chloro-4-((S)-2,2,2-trifluoro-1-methyl-ethoxy)-benzenesulfonyl]-1-(1-methyl-cyclopropanecarbonyl)-pyrrolidine-2-carboxylic acid (1-cyano-cyclopropyl)-amide]	0.5 nM	7740 nM
Cc1ccc(C2(C(=O)N3C[C@H](S(=O)(=O)c4ccc(OCC(F)(F)F)cc4Cl)C[C@H]3C(=O)NC3(C#N)CC3)CC2)cc1 [Example 304, (2S,4R)-4-[2-Chloro-4-(2,2,2-trifluoro-ethoxy)-benzenesulfonyl]-1-(1-p-tolyl-cyclopropanecarbonyl)-pyrrolidine-2-carboxylic acid (1-cyano-cyclopropyl)-amide]	0.445 nM	805 nM
Cn1nc(C(C)(C)C)cc1C(=O)N1C[C@H](S(=O)(=O)c2ccc(OCC(F)(F)F)cc2Cl)C[C@H]1C(=O)NC1(C#N)CC1 [Example 386, (2S,4R)-1-(5-tert-Butyl-2-methyl-2H-pyrazole-3-carbonyl)-4-[2-chloro-4-(2,2,2-trifluoro-ethoxy)-benzenesulfonyl]-pyrrolidine-2-carboxylic acid (1-cyano-cyclopropyl)-amide]	1.75 nM	4030 nM
C=CCN[C@@H](C(=O)N1C[C@H](S(=O)(=O)c2ccccc2OCC=C)C[C@H]1C(=O)NC1(C#N)CC1)c1ccc(Cl)cc1 [Example 455, (2S,4R)-1-[(R)-2-Allylamino-2-(4-chloro-phenyl)-acetyl]-4-(2-allyloxy-benzenesulfonyl)-pyrrolidine-2-carboxylic acid (1-cyano-cyclopropyl)-amide]	77 nM	≥ 25000 nM
